In publication PMC4771075 (Journal of medicinal chemistry, 2015):
Several values for one entry are separate records, joined by “and”; a condition that tells them apart may be missing. Equal entries are not always repeated. Where two headings read alike, the source gives them in different places. Square brackets hold non-standard residues; d marks the D form. * marks the point of attachment. Dap = NC[C@H](N)C(=O)O; Bn = c1ccc(C*)cc1

Legend:
[1] = target: kappa opioid receptor (KOR) (Rattus norvegicus, UniProt P34975); test: biochemical; format: binding
[2] = target: mu opioid receptor (MOR) (Rattus norvegicus, UniProt P33535); test: Radioligand binding assay, MOR
[3] = tested on: stress-induced reinstatement of cocaine seeking behavior; conditions: mice, s.c. administration; cited from earlier work
[4] = target: T1, KOR (Rattus norvegicus, UniProt P34975); conditions: read-out: KOR Ki found previously; cited from earlier work
[5] = target: T1, KOR; test: Agonist stimulated [^35S]GTPγS binding assay, agonist efficacy; format: biochemical
[6] = target: T1, KOR; test: Schild analysis against Dyn A; format: biochemical
[7] = target: T1, KOR; conditions: after a single dose; cited from earlier work

T1 sequence (P34975 whole entry): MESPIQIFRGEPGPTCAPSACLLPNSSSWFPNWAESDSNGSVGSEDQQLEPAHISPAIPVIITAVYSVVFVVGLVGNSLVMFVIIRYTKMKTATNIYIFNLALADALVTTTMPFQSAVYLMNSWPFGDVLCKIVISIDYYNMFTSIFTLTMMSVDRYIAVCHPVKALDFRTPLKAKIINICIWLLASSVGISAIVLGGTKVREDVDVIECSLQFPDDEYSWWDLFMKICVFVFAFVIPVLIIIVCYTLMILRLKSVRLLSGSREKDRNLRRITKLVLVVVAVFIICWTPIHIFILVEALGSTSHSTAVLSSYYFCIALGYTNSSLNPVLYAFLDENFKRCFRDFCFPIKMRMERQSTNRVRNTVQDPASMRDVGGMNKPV
Sequence of kappa opioid receptor (KOR) (P34975 whole entry): as above
Sequence of mu opioid receptor (MOR) (P33535 whole entry): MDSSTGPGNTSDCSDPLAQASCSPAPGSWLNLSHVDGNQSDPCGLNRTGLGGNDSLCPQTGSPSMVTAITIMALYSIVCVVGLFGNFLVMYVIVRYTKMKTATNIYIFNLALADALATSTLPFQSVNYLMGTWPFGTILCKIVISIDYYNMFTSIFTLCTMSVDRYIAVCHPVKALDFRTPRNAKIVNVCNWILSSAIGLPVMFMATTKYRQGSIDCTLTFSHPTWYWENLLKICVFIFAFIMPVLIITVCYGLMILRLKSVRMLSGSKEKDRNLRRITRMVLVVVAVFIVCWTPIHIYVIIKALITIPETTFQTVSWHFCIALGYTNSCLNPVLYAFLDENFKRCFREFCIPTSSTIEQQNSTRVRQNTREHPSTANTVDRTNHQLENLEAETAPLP

With CC[C@H](C)[C@H](NC(=O)[C@H](CCCNC(=N)N)NC(=O)[C@H](CCCNC(=N)N)NC(=O)[C@@H](CC(N)=O)NC(=O)[C@H](Cc1ccccc1)NC(=O)CNC(=O)CNC(=O)[C@H](Cc1ccc(O)cc1)NCc1ccccc1)C(=O)N[C@@H](CCCNC(=N)N)C(=O)N1CCC[C@H]1C(=O)N[C@@H](CCCCN)C(N)=O [Peptide 2, NBn-Tyr^1-Gly-Gly-Phe-DAsn^5-Arg-Arg-Ile-Arg-Pro-Lys-NH2] the “fold lower KOR affinity compared to zyklophin” value [1] was 4 fold.
For N=C(N)NCCC[C@@H]1NC(=O)[C@H](CCCNC(=N)N)NC(=O)[C@H](NC(=O)[C@H](Cc2ccccc2)NC(=O)CNC(=O)CNC(=O)[C@H](Cc2ccc(O)cc2)NCc2ccccc2)CC(=O)NC[C@@H](C(=O)N[C@@H](CCCNC(=N)N)C(=O)N2CCC[C@H]2C(=O)N[C@@H](CCCCN)C(N)=O)NC1=O [Peptide 1, [N-benzyl-Tyr^1-cyclo(D-Asp^5,Dap^8)]dynorphin A(1-11)NH2], the Ki ([1]; KOR Ki 95% confidence interval, n = 10) was 30 to 160 nM, the Ki ([1]; KOR Ki (nM ± SEM)) was 95.2 ± 28.8 nM and the “Relative KOR affinity” value ([1]; compared to zyklophin (1.0)) was 1.0. For the same compound, the Ki [2] was 4380 ± 560 nM and the “stress-induced reinstatement of cocaine seeking behavior” value [3] was “suppressed”.
For “[N-benzyl-Tyr^1,D-Asn^5,Dap(Ac)^8]Dyn A(1-11)NH2 (Bn-YGGF[dN]RR[Dap](Ac)RPK-NH2; not fully specified (residue 1))”, the Ki [4] is listed as 66.9 nM.
With CC(=O)NC[C@H](NC(=O)[C@H](CCCNC(=N)N)NC(=O)[C@H](CCCNC(=N)N)NC(=O)[C@H](CC(C)C)NC(=O)[C@H](Cc1ccccc1)NC(=O)CNC(=O)CNC(=O)[C@H](Cc1ccc(O)cc1)NCc1ccccc1)C(=O)N[C@@H](CCCNC(=N)N)C(=O)N1CCC[C@H]1C(=O)N[C@@H](CCCCN)C(N)=O [Peptide 3, NBn-Tyr^1-Gly-Gly-Phe-Leu-Arg-Arg-Dap(Ac)^8-Arg-Pro-Lys-NH2] the “Ki ratio, Ki (MOR)/Ki (KOR)” value [1] was 5, the “Relative KOR affinity” value [1] was 3.3 and the “fold higher KOR affinity compared to zyklophin” value [1] was 3 fold. For the same compound, the Ki ([1]; KOR Ki (nM ± SEM)) was 28 nM and 28.6 nM, the Ki [2] was 157 ± 25 nM and the “fold higher MOR affinity than zyklophin” value [2] was 28 fold. The EC50 [5] was 39.5 ± 17.4 nM and the “KOR efficacy in the GTPγS assay” value ([5]; screened at 10 µM, compared to the full agonist Dyn A(1-13)NH2) was 26%.
For Oc1ccc2c3c1O[C@H]1c4[nH]c5c(c4C[C@@]4(O)[C@@H](C2)N(CC2CC2)CC[C@]314)C[C@@]1(O)[C@H]2Cc3ccc(O)c4c3[C@@]1(CCN2CC1CC1)[C@H]5O4 [norBNI, nor-binaltorphimine, reference compound], the Kb [6] is listed as 0.074 nM and the “duration of KOR antagonist activity” value [7] is listed as “lasting weeks after a single dose”.
For CC[C@H](C)[C@H](NC(=O)[C@H](CCCN=C(N)N)NC(=O)[C@H](CCCN=C(N)N)NC(=O)[C@H](CC(C)C)NC(=O)[C@H](Cc1ccccc1)NC(=O)CNC(=O)CNC(=O)[C@@H](N)Cc1ccc(O)cc1)C(=O)N[C@@H](CCCN=C(N)N)C(=O)N1CCC[C@H]1C(=O)N[C@@H](CCCCN)C(N)=O [Dyn A(1-11)NH2, reference compound], the Ki ([1]; KOR Ki (nM ± SEM)) was 2.6 ± 0.3 nM.
For CC(C)[C@@H](CN1CC[C@@](C)(c2cccc(O)c2)[C@@H](C)C1)NC(=O)[C@H]1Cc2ccc(O)cc2CN1 [JDTic, (3R)-7-hydroxy-N-[(2S)-1-[(3R,4R)-4-(3-hydroxyphenyl)-3,4-dimethylpiperidin-1-yl]-3-methylbutan-2-yl]-1,2,3,4-tetrahydroisoquinoline-3-carboxamide], the “duration of KOR antagonist activity” value [7] is listed as “lasting weeks after a single dose”.
